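96-well plates; 48 h exposure; 5 concentrations. Endpoints by linear interpolation between flanking doses. Not reached: highest tested concentration assigned. GI50 is the concentration that inhibits growth by half.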 Calls of active or inactive are those of the source. Rule as the data show it: active = GI50 up to about 1.1 µM and inactive = higher.
Experiments:
Assay in all cases: growth of human tumour cells (NCI), 48 h
SF-539 = test system: SF-539
TK-10 = test system: TK-10
T47D = test system: T47D
OVCAR-4 = test system: OVCAR-4
HOP-62 = test system: HOP-62
SF-268 = test system: SF-268
DU-145 = test system: DU-145
KM12 = test system: KM12
HCT-116 = test system: HCT-116
UO-31 = test system: UO-31
SK-MEL-28 = test system: SK-MEL-28
RXF 393 = test system: RXF 393
IGROV-1 = test system: IGROV-1
NCI-H23 = test system: NCI-H23
HCC 2998 = test system: HCC 2998
SW-620 = test system: SW-620
EKVX = test system: EKVX
BT-549 = test system: BT-549
MCF7 = test system: MCF7
MDA-N = test system: MDA-N

## CS(C)(=O)=N/C=C\C(=O)C(Cl)(Cl)Cl
SF-539
  GI50: > 100 µM (inactive)
TK-10
  GI50: > 100 µM (inactive)
T47D
  GI50: > 100 µM (inactive)
OVCAR-4
  GI50: > 100 µM (inactive)
HOP-62
  GI50: 99.1 µM (inactive)
SF-268
  GI50: > 100 µM (inactive)
DU-145
  GI50: > 100 µM (inactive)
KM12
  GI50: > 100 µM (inactive)
HCT-116
  GI50: 98.6 µM (inactive)
UO-31
  GI50: > 100 µM (inactive)
SK-MEL-28
  GI50: > 100 µM (inactive)
RXF 393
  GI50: > 100 µM (inactive)
IGROV-1
  GI50: 93.5 µM (inactive)
NCI-H23
  GI50: > 100 µM (inactive)
HCC 2998
  GI50: > 100 µM (inactive)
SW-620
  GI50: > 100 µM (inactive)
EKVX
  GI50: > 100 µM (inactive)
BT-549
  GI50: > 100 µM (inactive)
MCF7
  GI50: > 100 µM (inactive)
MDA-N
  GI50: 65.2 µM (inactive)

## C=C(C)C(=O)O[C@H]1[C@H]2[C@H](OC(=O)[C@H]2C)[C@H](O)[C@@H](C)[C@@H]2C=CC(=O)[C@]21C
SF-539
  GI50: 3.67 µM (inactive)
TK-10
  GI50: 2.82 µM (inactive)
T47D
  GI50: 4.78 µM (inactive)
OVCAR-4
  GI50: 5.64 µM (inactive)
HOP-62
  GI50: 9.06 µM (inactive)
SF-268
  GI50: 3.4 µM (inactive)
DU-145
  GI50: 3.9 µM (inactive)
KM12
  GI50: 2.51 µM (inactive)
HCT-116
  GI50: 2.32 µM (inactive)
UO-31
  GI50: 3.94 µM (inactive)
SK-MEL-28
  GI50: 2.26 µM (inactive)
RXF 393
  GI50: 1.22 µM (inactive)
IGROV-1
  GI50: 2.37 µM (inactive)
NCI-H23
  GI50: 3.71 µM (inactive)
HCC 2998
  GI50: 2.45 µM (inactive)
SW-620
  GI50: 2.72 µM (inactive)
EKVX
  GI50: 2.86 µM (inactive)
BT-549
  GI50: 3.83 µM (inactive)
MCF7
  GI50: 4.19 µM (inactive)
MDA-N
  GI50: 2.58 µM (inactive)

## COc1ccc(C(CC(=O)c2ccc3c(c2)OCO3)c2c(O)oc3ccccc3c2=O)cc1OC (stereo not given)
SF-539
  GI50: > 100 µM (inactive)
TK-10
  GI50: 67.8 µM (inactive)
T47D
  GI50: > 100 µM (inactive)
OVCAR-4
  GI50: 61.8 µM (inactive)
HOP-62
  GI50: > 100 µM (inactive)
SF-268
  GI50: > 100 µM (inactive)
DU-145
  GI50: > 100 µM (inactive)
KM12
  GI50: > 100 µM (inactive)
HCT-116
  GI50: 75.3 µM (inactive)
UO-31
  GI50: 73.3 µM (inactive)
SK-MEL-28
  GI50: > 100 µM (inactive)
RXF 393
  GI50: > 100 µM (inactive)
IGROV-1
  GI50: > 100 µM (inactive)
NCI-H23
  GI50: 78 µM (inactive)
HCC 2998
  GI50: > 100 µM (inactive)
SW-620
  GI50: > 100 µM (inactive)
EKVX
  GI50: > 100 µM (inactive)
BT-549
  GI50: 36.2 µM (inactive)
MCF7
  GI50: 69.3 µM (inactive)
MDA-N
  GI50: > 100 µM (inactive)

## Oc1cnnc2nc3ccccc3n12
SF-539
  GI50: > 100 µM (inactive)
TK-10
  GI50: > 100 µM (inactive)
T47D
  GI50: > 100 µM (inactive)
OVCAR-4
  GI50: > 100 µM (inactive)
HOP-62
  GI50: > 100 µM (inactive)
SF-268
  GI50: > 100 µM (inactive)
DU-145
  GI50: > 100 µM (inactive)
KM12
  GI50: > 100 µM (inactive)
HCT-116
  GI50: > 100 µM (inactive)
UO-31
  GI50: > 100 µM (inactive)
SK-MEL-28
  GI50: > 100 µM (inactive)
RXF 393
  GI50: > 100 µM (inactive)
IGROV-1
  GI50: > 100 µM (inactive)
NCI-H23
  GI50: > 100 µM (inactive)
HCC 2998
  GI50: > 100 µM (inactive)
SW-620
  GI50: > 100 µM (inactive)
EKVX
  GI50: 34.8 µM (inactive)
BT-549
  GI50: > 100 µM (inactive)
MCF7
  GI50: > 100 µM (inactive)
MDA-N
  GI50: > 100 µM (inactive)

## COc1ccc2[nH]cc(C=C3C(=O)NC(=S)NC3=O)c2c1
SF-539
  GI50: > 100 µM (inactive)
TK-10
  GI50: 38.9 µM (inactive)
T47D
  GI50: > 100 µM (inactive)
OVCAR-4
  GI50: > 100 µM (inactive)
HOP-62
  GI50: 45.9 µM (inactive)
SF-268
  GI50: 19.8 µM (inactive)
DU-145
  GI50: > 100 µM (inactive)
KM12
  GI50: > 100 µM (inactive)
HCT-116
  GI50: > 100 µM (inactive)
UO-31
  GI50: > 100 µM (inactive)
SK-MEL-28
  GI50: > 100 µM (inactive)
RXF 393
  GI50: 30.3 µM (inactive)
IGROV-1
  GI50: > 100 µM (inactive)
NCI-H23
  GI50: 31.2 µM (inactive)
HCC 2998
  GI50: > 100 µM (inactive)
SW-620
  GI50: > 100 µM (inactive)
EKVX
  GI50: > 100 µM (inactive)
BT-549
  GI50: 53 µM (inactive)
MCF7
  GI50: > 100 µM (inactive)
MDA-N
  GI50: > 100 µM (inactive)

## S=C(NCCc1ccccn1)N/N=C(\c1ccccc1)c1ccccn1
SF-539
  GI50: 0.63 µM (active)
TK-10
  GI50: 1.33 µM (inactive)
T47D
  GI50: < 0.0444 µM (active)
OVCAR-4
  GI50: 3.01 µM (inactive)
HOP-62
  GI50: 1.77 µM (inactive)
SF-268
  GI50: 0.222 µM (active)
DU-145
  GI50: 3.4 µM (inactive)
KM12
  GI50: 2.76 µM (inactive)
HCT-116
  GI50: < 0.01 µM (active)
UO-31
  GI50: 1.23 µM (inactive)
SK-MEL-28
  GI50: 14.7 µM (inactive)
RXF 393
  GI50: 2.4 µM (inactive)
IGROV-1
  GI50: < 0.0103 µM (active)
NCI-H23
  GI50: 0.125 µM (active)
HCC 2998
  GI50: 12.1 µM (inactive)
SW-620
  GI50: 0.0331 µM (active)
EKVX
  GI50: 0.0525 µM (active)
BT-549
  GI50: 3.3 µM (inactive)
MCF7
  GI50: < 0.01 µM (active)
MDA-N
  GI50: 8.2 µM (inactive)

## Cc1ccc(NCC2CC/C(=C\c3ccc(Cl)cc3)C2=O)cc1 (stereo not given)
SF-539
  GI50: 23.7 µM (inactive)
TK-10
  GI50: 11.3 µM (inactive)
T47D
  GI50: 15.1 µM (inactive)
OVCAR-4
  GI50: 24.4 µM (inactive)
HOP-62
  GI50: 50 µM (inactive)
SF-268
  GI50: 18.5 µM (inactive)
DU-145
  GI50: 30.1 µM (inactive)
KM12
  GI50: 5.66 µM (inactive)
HCT-116
  GI50: 11.6 µM (inactive)
UO-31
  GI50: 21.2 µM (inactive)
SK-MEL-28
  GI50: 15.6 µM (inactive)
RXF 393
  GI50: 17 µM (inactive)
IGROV-1
  GI50: 16.6 µM (inactive)
NCI-H23
  GI50: 20.6 µM (inactive)
HCC 2998
  GI50: 30.6 µM (inactive)
SW-620
  GI50: 3.67 µM (inactive)
EKVX
  GI50: 52.7 µM (inactive)
BT-549
  GI50: 15.3 µM (inactive)
MCF7
  GI50: 2.83 µM (inactive)
MDA-N
  GI50: 13.6 µM (inactive)

## C=C1C(C(=O)OC)[C@H]1C(=O)OC (stereo not given in full)
SF-539
  GI50: > 100 µM (inactive)
TK-10
  GI50: > 100 µM (inactive)
T47D
  GI50: > 100 µM (inactive)
OVCAR-4
  GI50: > 100 µM (inactive)
HOP-62
  GI50: > 100 µM (inactive)
SF-268
  GI50: > 100 µM (inactive)
DU-145
  GI50: > 100 µM (inactive)
KM12
  GI50: > 100 µM (inactive)
HCT-116
  GI50: > 100 µM (inactive)
UO-31
  GI50: > 100 µM (inactive)
SK-MEL-28
  GI50: > 100 µM (inactive)
RXF 393
  GI50: > 100 µM (inactive)
IGROV-1
  GI50: > 100 µM (inactive)
NCI-H23
  GI50: > 100 µM (inactive)
HCC 2998
  GI50: > 100 µM (inactive)
SW-620
  GI50: > 100 µM (inactive)
EKVX
  GI50: > 100 µM (inactive)
BT-549
  GI50: > 100 µM (inactive)
MCF7
  GI50: > 100 µM (inactive)
MDA-N
  GI50: > 100 µM (inactive)

Reference: ChEMBL document CHEMBL1201862, “PubChem BioAssay data set” (2004)
